The results in this text go back to ChEMBL document CHEMBL5696442, “Discovery of type II inhibitors of TGFβ-activated kinase 1 (TAK1) and mitogen-activated protein kinase kinase kinase kinase 2 (MAP4K2)” (J Med Chem, 2015).

Assay [1] addresses eIF-2-alpha kinase GCN2 (Homo sapiens) (UniProt Q9P2K8). Put plainly: Inhibition of GCN2 domain2 Lys2 labeling site in human A-375 cells at 0.05 uM by KiNativ Profiling analysis relative to control. Format: cell-based.
Assay [2] concerns the target T1, NUAK family SNF1-like kinase 2 (Homo sapiens) (UniProt Q9H093).
T1 sequence (whole entry): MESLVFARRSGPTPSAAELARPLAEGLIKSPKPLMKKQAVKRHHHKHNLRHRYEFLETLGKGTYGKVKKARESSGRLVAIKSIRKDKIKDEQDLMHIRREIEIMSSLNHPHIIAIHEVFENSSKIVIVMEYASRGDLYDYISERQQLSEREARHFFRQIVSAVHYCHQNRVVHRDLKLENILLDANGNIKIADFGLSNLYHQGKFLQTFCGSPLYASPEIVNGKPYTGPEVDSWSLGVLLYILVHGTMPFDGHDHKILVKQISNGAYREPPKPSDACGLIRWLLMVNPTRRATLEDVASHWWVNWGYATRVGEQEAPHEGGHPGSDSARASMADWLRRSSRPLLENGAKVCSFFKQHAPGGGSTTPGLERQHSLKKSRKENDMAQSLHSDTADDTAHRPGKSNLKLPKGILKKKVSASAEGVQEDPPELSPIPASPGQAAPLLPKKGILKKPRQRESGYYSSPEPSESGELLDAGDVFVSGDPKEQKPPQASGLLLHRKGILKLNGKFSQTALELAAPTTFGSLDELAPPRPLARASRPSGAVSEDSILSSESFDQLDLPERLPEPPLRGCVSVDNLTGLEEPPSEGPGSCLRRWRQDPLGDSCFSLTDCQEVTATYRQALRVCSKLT
Put plainly: Inhibition of NuaK2 Lys1 labeling site in human A-375 cells at 5 uM by KiNativ Profiling analysis relative to control. Format: cell-based.

The target in assay [3] is T2, Serine/threonine-protein kinase ULK1 (Homo sapiens) (UniProt O75385).
T2 sequence (whole entry): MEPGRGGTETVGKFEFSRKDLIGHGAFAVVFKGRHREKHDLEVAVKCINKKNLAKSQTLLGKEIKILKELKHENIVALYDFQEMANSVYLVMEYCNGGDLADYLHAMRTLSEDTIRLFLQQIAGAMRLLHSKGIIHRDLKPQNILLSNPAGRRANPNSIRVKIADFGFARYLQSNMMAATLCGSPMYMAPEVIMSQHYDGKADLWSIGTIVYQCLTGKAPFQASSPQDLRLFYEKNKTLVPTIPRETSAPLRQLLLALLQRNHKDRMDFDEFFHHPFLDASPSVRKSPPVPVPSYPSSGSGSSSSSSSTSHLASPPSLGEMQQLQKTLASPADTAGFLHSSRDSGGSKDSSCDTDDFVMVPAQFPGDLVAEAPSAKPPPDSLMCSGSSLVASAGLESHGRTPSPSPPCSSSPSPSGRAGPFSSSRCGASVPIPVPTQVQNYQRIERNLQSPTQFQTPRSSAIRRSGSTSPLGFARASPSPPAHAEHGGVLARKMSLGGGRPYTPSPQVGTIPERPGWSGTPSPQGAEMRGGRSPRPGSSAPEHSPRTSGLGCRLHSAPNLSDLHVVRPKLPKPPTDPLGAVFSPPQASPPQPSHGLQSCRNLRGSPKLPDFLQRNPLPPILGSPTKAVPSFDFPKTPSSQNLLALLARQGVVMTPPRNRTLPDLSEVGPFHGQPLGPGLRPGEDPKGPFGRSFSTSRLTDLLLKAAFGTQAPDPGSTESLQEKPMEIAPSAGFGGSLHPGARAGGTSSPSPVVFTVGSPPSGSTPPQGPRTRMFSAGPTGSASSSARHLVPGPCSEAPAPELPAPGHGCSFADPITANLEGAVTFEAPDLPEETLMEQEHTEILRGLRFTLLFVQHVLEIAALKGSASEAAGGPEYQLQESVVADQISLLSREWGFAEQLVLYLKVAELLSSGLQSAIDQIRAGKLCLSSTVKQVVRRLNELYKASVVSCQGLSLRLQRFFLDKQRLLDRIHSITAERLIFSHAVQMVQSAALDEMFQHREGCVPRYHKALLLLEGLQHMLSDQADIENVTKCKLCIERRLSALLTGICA
Put plainly: Inhibition of ULK1 (unknown origin) at 1 uM by Ambit Kinomescan binding assay relative to control.

In assay [4] the target is Calcium/calmodulin-dependent protein kinase kinase 2 (Homo sapiens) (UniProt Q96RR4). The experiment in a line: Inhibition of CAMKK2 (unknown origin) at 1 uM by Ambit Kinomescan binding assay relative to control; values are per cent of control.
The target of assay [5] is Mitogen-activated protein kinase kinase kinase kinase 4 (Homo sapiens, UniProt O95819). Put plainly: Inhibition of MAP4K4 (unknown origin) at 10 uM by Ambit Kinomescan binding assay relative to control.
The test system of assay [6] is MEF. The experiment in a line: Inhibition of IL-1alpha induced p38 phosphorylation level in mouse MEF cells preincubated for 1 hr followed by IL-1 alpha stimulation and measured after 30 mins by Western blot analysis. The following applies: dose 0.01-10 µM. Format: functional, cell-based.
Assay [7] has as its target T3, Mitogen-activated protein kinase kinase kinase 3 (Homo sapiens) (UniProt Q99759).
T3 sequence (whole entry): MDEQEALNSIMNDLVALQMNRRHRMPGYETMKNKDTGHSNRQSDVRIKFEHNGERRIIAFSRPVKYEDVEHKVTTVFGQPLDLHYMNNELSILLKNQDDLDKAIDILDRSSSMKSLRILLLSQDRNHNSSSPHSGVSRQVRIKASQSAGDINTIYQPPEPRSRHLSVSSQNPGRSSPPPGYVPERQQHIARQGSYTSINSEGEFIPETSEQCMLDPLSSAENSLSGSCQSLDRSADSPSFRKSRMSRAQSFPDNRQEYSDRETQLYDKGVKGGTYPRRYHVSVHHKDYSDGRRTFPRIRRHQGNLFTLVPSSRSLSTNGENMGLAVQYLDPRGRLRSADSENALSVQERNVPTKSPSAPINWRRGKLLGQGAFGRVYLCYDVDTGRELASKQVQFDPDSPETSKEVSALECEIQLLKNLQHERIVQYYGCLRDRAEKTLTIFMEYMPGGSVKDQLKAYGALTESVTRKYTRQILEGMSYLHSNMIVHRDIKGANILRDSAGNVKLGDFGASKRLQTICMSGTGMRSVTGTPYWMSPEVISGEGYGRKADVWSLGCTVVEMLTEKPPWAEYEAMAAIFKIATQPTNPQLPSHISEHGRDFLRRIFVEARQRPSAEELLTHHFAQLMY
The experiment in a line: Inhibition of MAP3K3 Lys2 labeling site in human A-375 cells at 0.5 uM by KiNativ Profiling analysis relative to control. Format: cell-based.

The target of assay [8] is STE20-like serine/threonine-protein kinase (Homo sapiens) (UniProt Q9H2G2). The experiment in a line: Inhibition of SLK (unknown origin) at 10 uM by Ambit Kinomescan binding assay relative to control; values are per cent of control.
Assay [9] concerns the target DNA-PK/Ku70/Ku85 (Homo sapiens) (UniProt P78527+P12956+P13010). Put plainly: Inhibition of DNAPK ATP labeling site harbouring GHDEREHPFLVKGGEDLR in human Huh-7 cell lysate at 1 uM by KiNativ Profiling analysis relative to control. Format: subcellular.

The structures appear in SMILES notation.

Mitogen-activated protein kinase kinase kinase kinase 4, sequence (O95819 2-1239 limits assumed): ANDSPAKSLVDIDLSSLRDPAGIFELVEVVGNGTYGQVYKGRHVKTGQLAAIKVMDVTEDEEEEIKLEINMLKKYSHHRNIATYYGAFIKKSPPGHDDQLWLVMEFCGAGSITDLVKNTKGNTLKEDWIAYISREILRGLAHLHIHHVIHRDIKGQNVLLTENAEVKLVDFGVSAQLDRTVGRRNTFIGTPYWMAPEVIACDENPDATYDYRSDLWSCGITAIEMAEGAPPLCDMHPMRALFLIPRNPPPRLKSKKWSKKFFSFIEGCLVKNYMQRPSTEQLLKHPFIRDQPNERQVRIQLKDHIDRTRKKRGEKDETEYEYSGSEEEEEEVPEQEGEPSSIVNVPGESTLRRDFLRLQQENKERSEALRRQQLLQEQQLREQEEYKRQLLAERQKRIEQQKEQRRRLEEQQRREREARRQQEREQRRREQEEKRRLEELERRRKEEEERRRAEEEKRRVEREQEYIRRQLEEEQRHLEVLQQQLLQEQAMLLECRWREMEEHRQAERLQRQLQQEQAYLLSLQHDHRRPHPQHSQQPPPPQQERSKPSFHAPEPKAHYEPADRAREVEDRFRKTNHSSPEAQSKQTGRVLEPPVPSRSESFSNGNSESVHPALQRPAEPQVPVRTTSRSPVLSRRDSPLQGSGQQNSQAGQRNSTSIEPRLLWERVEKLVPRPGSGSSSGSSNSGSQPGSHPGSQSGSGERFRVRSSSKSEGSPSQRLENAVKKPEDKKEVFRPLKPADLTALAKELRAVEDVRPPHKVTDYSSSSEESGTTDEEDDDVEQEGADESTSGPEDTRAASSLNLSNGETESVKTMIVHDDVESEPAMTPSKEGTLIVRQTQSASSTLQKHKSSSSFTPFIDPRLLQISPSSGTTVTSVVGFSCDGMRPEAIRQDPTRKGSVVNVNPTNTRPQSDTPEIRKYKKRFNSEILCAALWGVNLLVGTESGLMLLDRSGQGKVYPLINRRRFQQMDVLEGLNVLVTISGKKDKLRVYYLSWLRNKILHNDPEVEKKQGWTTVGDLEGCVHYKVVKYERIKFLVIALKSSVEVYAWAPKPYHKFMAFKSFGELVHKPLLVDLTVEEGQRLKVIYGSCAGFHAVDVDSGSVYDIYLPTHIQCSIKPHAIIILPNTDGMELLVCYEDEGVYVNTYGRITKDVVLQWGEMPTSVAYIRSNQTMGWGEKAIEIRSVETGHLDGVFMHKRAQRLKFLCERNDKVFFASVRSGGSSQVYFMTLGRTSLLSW
STE20-like serine/threonine-protein kinase (Homo sapiens), sequence (Q9H2G2 whole entry, looked up): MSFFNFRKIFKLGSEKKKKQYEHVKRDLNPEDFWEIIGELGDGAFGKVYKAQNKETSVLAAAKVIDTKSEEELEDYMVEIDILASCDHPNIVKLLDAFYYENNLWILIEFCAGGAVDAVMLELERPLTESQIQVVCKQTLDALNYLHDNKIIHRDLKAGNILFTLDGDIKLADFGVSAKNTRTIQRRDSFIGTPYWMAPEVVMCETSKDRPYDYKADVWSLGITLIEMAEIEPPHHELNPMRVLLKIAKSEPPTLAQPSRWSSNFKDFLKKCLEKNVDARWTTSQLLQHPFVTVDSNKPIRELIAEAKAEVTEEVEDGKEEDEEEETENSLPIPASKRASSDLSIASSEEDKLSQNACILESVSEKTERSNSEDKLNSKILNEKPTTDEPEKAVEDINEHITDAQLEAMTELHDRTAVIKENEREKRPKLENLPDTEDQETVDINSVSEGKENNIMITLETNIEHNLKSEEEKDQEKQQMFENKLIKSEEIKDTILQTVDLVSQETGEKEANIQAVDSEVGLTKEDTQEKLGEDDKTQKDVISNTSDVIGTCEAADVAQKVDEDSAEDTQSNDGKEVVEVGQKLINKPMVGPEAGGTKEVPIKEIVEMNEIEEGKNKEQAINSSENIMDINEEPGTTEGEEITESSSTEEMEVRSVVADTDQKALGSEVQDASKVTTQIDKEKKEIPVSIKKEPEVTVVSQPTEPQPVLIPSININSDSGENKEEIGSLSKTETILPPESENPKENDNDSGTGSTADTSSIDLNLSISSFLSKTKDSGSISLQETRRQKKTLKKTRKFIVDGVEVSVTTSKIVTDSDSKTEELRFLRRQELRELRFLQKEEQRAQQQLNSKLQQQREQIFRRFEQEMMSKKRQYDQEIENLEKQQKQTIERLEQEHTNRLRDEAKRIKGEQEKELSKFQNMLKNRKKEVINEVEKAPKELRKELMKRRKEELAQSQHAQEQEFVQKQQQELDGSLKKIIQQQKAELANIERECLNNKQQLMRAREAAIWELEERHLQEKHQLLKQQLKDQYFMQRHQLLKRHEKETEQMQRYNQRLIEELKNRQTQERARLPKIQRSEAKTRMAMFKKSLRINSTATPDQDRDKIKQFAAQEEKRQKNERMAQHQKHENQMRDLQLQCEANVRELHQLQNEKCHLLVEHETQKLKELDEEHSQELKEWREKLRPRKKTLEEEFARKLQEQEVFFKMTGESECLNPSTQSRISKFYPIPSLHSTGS
Calcium/calmodulin-dependent protein kinase kinase 2 (Homo sapiens), sequence (Q96RR4 2-588 limits assumed): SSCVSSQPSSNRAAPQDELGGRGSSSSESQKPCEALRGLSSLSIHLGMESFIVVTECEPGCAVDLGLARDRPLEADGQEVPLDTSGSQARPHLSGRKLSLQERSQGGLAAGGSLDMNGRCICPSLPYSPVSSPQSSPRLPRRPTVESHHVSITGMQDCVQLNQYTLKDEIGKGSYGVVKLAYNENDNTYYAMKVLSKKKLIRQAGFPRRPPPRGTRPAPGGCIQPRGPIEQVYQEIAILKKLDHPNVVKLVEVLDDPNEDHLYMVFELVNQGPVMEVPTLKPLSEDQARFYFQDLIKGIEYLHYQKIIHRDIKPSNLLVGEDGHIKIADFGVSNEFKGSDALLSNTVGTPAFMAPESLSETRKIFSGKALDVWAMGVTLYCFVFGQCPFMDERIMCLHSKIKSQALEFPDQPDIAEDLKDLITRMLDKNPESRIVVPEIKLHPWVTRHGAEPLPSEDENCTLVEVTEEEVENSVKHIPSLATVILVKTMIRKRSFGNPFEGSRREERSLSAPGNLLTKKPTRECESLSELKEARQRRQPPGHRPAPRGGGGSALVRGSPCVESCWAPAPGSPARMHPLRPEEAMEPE
eIF-2-alpha kinase GCN2 (Homo sapiens), sequence (Q9P2K8 whole entry, the tested form may be a part): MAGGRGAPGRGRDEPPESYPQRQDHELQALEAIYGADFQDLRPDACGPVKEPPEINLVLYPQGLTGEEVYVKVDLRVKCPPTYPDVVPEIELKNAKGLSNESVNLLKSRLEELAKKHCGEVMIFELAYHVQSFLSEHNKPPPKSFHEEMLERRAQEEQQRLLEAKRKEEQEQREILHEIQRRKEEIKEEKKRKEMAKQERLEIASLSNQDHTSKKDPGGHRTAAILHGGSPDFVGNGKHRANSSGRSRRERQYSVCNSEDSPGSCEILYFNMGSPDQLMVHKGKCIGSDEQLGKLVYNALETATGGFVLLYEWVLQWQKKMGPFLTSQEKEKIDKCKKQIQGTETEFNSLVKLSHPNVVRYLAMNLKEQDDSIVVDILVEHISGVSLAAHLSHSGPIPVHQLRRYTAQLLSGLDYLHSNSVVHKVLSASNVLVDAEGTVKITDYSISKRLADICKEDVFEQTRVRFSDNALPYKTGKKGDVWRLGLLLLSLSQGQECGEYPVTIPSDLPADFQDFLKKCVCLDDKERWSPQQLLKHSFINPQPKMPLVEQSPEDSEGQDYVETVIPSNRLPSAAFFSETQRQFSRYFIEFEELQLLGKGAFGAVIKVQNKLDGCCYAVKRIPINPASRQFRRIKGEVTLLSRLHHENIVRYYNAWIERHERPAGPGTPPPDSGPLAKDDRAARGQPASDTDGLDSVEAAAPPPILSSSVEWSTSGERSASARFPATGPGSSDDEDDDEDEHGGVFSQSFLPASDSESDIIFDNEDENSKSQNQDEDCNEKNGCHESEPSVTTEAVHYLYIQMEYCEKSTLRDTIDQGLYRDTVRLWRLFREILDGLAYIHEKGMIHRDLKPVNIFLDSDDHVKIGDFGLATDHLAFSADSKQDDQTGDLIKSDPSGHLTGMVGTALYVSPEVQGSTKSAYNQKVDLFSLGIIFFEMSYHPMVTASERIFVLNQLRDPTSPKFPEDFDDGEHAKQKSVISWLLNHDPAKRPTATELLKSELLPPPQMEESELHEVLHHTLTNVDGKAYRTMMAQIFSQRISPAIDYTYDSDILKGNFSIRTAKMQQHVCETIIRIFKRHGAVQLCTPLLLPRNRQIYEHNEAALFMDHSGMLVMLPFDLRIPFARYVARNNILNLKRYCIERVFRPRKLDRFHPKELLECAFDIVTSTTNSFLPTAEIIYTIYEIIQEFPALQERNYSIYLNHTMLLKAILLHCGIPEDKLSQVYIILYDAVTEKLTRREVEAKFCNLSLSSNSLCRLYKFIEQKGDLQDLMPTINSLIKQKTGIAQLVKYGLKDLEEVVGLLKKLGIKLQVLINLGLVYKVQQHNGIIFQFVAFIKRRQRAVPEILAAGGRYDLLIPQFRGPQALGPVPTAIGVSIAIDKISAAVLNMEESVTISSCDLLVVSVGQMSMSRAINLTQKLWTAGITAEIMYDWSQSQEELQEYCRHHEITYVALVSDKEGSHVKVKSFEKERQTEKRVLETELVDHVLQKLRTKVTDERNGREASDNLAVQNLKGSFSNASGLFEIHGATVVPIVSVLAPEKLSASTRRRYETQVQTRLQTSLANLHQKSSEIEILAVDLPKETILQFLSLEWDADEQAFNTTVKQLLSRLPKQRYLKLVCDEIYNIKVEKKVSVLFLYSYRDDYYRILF

The inhibition is the relative decrease from the control value, in per cent. As usually defined, the residual activity is the activity still measured, relative to the control. On to `CCN1CCN(Cc2ccc(NC(=O)c3ccc(C)c(/C=C/c4cnc5[nH]ccc5c4OC)c3)cc2C(F)(F)F)CC1`, for which the inhibition in [1] was -0.9%; in assay [2] it was -6.1%; in assay [3], 68%. In assay [4], the residual activity was 100%.
Regarding `CCN1CCN(Cc2ccc(NC(=O)c3ccc(C)c(Oc4ccnc5[nH]ccc45)c3)cc2C(F)(F)F)CC1`, the inhibition in assay [5] was 0%; in assay [6], “Dose-Dependent Effect”; in assay [7], 2.8%. In [8], this compound showed a residual activity of 2%.
With `CNc1cc(Oc2cc(C(=O)Nc3cc(N4CCN(C)CC4)cc(C(F)(F)F)c3)ccc2C)ncn1`, the inhibition in assay [9] was 7.9%.
